Laboratory results published in PubChem BioAssay (NCI).
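1) Cells in 96-well plates. 2) Compound, 48 h, 5 concentrations. 3) Linear interpolation between surrounding doses. 4) Unreached endpoint = highest concentration. Abbreviation: GI50, concentration required for 50% inhibition of growth. The concentration for full growth arrest is given as TGI.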

Experiments:
Test in all cases: NCI-60 cell line screen, 48 h
[1] = test system: 786-0 renal
[2] = test system: A498 renal
[3] = test system: A549 NSCLC
[4] = test system: ACHN renal
[5] = test system: BT-549 breast
[6] = test system: CAKI-1 renal
[7] = test system: CCRF-CEM leukemia
[8] = test system: COLO 205 colon
[9] = test system: DU-145 prostate
[10] = test system: HCC-2998 colon
[11] = test system: HCT-116 colon
[12] = test system: HCT-15 colon
[13] = test system: HL-60(TB) leukemia
[14] = test system: HOP-62 NSCLC
[15] = test system: HOP-92 NSCLC
[16] = test system: HS 578T breast
[17] = test system: HT29 colon
[18] = test system: IGROV1 ovarian
[19] = test system: K-562 leukemia
[20] = test system: KM12 colon
[21] = test system: LOX IMVI melanoma
[22] = test system: M14 melanoma
[23] = test system: MALME-3M melanoma
[24] = test system: MCF7 breast
[25] = test system: MDA-MB-231 breast
[26] = test system: MDA-MB-435
[27] = test system: MOLT-4 leukemia
[28] = test system: NCI-H226 lung
[29] = test system: NCI-H23 lung
[30] = test system: NCI-H460 lung
[31] = test system: NCI-H522 lung
[32] = test system: NCI/ADR-RES ovarian
[33] = test system: OVCAR-3 ovarian
[34] = test system: OVCAR-4 ovarian
[35] = test system: OVCAR-5 ovarian
[36] = test system: OVCAR-8 ovarian
[37] = test system: PC-3 prostate
[38] = test system: RPMI-8226 leukemia
[39] = test system: RXF 393 renal
[40] = test system: SF-268 CNS
[41] = test system: SF-295 CNS
[42] = test system: SF-539 CNS
[43] = test system: SK-MEL-2 melanoma
[44] = test system: SK-MEL-28 melanoma
[45] = test system: SK-MEL-5 melanoma
[46] = test system: SK-OV-3 ovarian
[47] = test system: SN12C renal
[48] = test system: SNB-19 CNS
[49] = test system: SNB-75 CNS
[50] = test system: SR leukemia
[51] = test system: SW-620 colon
[52] = test system: T-47D breast
[53] = test system: TK-10 renal
[54] = test system: U251 CNS
[55] = test system: UACC-257 melanoma
[56] = test system: UACC-62 melanoma
[57] = test system: UO-31 renal

## O=C1NC(=NCCc2ccccc2F)S/C1=C\c1ccc2ncccc2c1
[1]
  GI50: 8.71 µM
  TGI: > 25 µM
[2]
  GI50: 4.83 µM
  TGI: 18.2 µM
[3]
  GI50: 5.39 µM
  TGI: > 25 µM
[4]
  GI50: 9.06 µM
  TGI: > 25 µM
[5]
  GI50: 6.48 µM
  TGI: > 25 µM
[6]
  GI50: 5.29 µM
  TGI: > 19.7 µM
[7]
  GI50: 5.05 µM
  TGI: > 20.1 µM
[8]
  GI50: 6.54 µM
  TGI: > 25 µM
[9]
  GI50: 8.81 µM
  TGI: > 25 µM
[10]
  GI50: 8.55 µM
  TGI: > 25 µM
[11]
  GI50: 1.27 µM
  TGI: > 25 µM
[12]
  GI50: 1.84 µM
  TGI: > 25 µM
[13]
  GI50: 9.14 µM
  TGI: 22.1 µM
[14]
  GI50: 9.31 µM
  TGI: > 25 µM
[15]
  GI50: 7.84 µM
  TGI: > 25 µM
[16]
  GI50: 7.05 µM
  TGI: > 23.4 µM
[17]
  GI50: 5.87 µM
  TGI: > 25 µM
[18]
  GI50: 7.02 µM
  TGI: > 25 µM
[19]
  GI50: 2.78 µM
  TGI: > 25 µM
[20]
  GI50: 4.02 µM
  TGI: > 25 µM
[21]
  GI50: 1.82 µM
  TGI: > 25 µM
[22]
  GI50: 8.42 µM
  TGI: > 25 µM
[23]
  GI50: 11.4 µM
  TGI: > 25 µM
[24]
  GI50: 1.68 µM
  TGI: > 25 µM
[25]
  GI50: 16.2 µM
  TGI: > 25 µM
[26]
  GI50: 1.57 µM
  TGI: > 16.8 µM
[27]
  GI50: 9.02 µM
  TGI: > 25 µM
[28]
  GI50: 7.59 µM
  TGI: > 25 µM
[29]
  GI50: 6.12 µM
  TGI: > 25 µM
[30]
  GI50: 6.57 µM
  TGI: > 25 µM
[31]
  GI50: 4.74 µM
  TGI: 16.9 µM
[32]
  GI50: 9.2 µM
  TGI: > 25 µM
[33]
  GI50: 7.35 µM
  TGI: 24.2 µM
[34]
  GI50: 6.45 µM
  TGI: > 20.6 µM
[35]
  GI50: > 20.4 µM
  TGI: > 25 µM
[36]
  GI50: 9.65 µM
  TGI: > 25 µM
[37]
  GI50: 13.4 µM
  TGI: > 25 µM
[38]
  GI50: 4.18 µM
  TGI: 24.9 µM
[39]
  GI50: 7.18 µM
  TGI: > 25 µM
[40]
  GI50: 7.76 µM
  TGI: > 25 µM
[41]
  GI50: 7.06 µM
  TGI: > 25 µM
[42]
  GI50: 5.18 µM
  TGI: > 25 µM
[43]
  GI50: 6.16 µM
  TGI: 14.5 µM
[44]
  GI50: 11.7 µM
  TGI: > 25 µM
[45]
  GI50: 5.85 µM
  TGI: 19.4 µM
[46]
  GI50: 7.82 µM
  TGI: > 25 µM
[47]
  GI50: 8.18 µM
  TGI: > 25 µM
[48]
  GI50: 5.68 µM
  TGI: > 25 µM
[49]
  GI50: 5.34 µM
  TGI: 19.1 µM
[50]
  GI50: 0.88 µM
  TGI: 8.83 µM
[51]
  GI50: 2.73 µM
  TGI: > 25 µM
[52]
  GI50: 9.55 µM
  TGI: > 25 µM
[53]
  GI50: 5.13 µM
  TGI: > 25 µM
[54]
  GI50: 4.69 µM
  TGI: > 25 µM
[55]
  GI50: 9.35 µM
  TGI: > 25 µM
[56]
  GI50: 7.1 µM
  TGI: > 25 µM
[57]
  GI50: 6.91 µM
  TGI: > 25 µM
